Source: publication PMC5773487, “Harnessing insulin- and leptin-induced oxidation of PTP1B for therapeutic development” (Nature Communications, 2018)
Changes are numbered by the printed parent chain.

What was measured:
[1] = biological target: T1, PTP1B-OX : TRX1 trapping mutant complex (Homo sapiens, UniProt P18031); assay: in vitro substrate trapping of PTP1B by thioredoxin trapping mutant; type: biochemical; settings: chelerythrine 5 μM
T1 sequence (P18031 1-321 limits assumed): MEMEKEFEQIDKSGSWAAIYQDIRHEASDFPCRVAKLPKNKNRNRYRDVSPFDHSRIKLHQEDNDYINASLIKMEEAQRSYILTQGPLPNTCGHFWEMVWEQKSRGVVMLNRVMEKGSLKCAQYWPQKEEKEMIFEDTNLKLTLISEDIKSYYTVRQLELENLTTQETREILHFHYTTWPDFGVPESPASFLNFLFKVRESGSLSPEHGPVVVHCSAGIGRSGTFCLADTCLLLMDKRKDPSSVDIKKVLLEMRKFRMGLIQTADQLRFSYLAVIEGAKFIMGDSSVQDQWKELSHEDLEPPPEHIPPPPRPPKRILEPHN
Description: Thioredoxin (TRX), which functions to reduce oxidized cysteines in target proteins, contains an essential CXXC motif, in which the first cysteine forms a mixed disulfide intermediate with an oxidized cysteine in the target protein. The second cysteine then serves a “resolving” function—it forms a disulfide bond with the first cysteine in the CXXC motif, with the resulting transfer of electrons leading to reduction of the target protein. We utilized an assay using a “trapping mutant” form of thioredoxin in which the second cysteine is mutated to serine, which stabilizes the mixed disulfide intermediate with the target substrate.
Recombinant variants of N-terminally His-tagged human TRX1 (0.1 mg, WT, and trapping mutant, C35S) were reduced with 20 mM DTT in 1 mL PBS on ice for 30 min, then desalted on a Sephadex PD-10 column. Ten μg each of TRX1-WT and TRX1-C35S proteins was used in the trapping experiment. PTP1B (40 μg ml^−1) was incubated with H2O2 (0, 0.1 and 0.5 mM) for 10 min at room temperature and excess H2O2 was removed by desalting. Reduced and oxidized forms of PTP1B (20 μg) were incubated with WT or trapping mutant TRX1 for 20 min at room temperature in the absence and presence of chelerythrine (5 μM) in 1 mL PBS. Ni-NTA beads were added and incubated for 1 h at 4 °C. […]

PTP1B-OX = biological target: T2, PTP1B-OX (Homo sapiens, UniProt P18031); assay: displacement assay of scFv antibodies from PTP1B-OX; type: binding; settings: chelerythrine 0–20 μM
T2 construct: Purified PTP1B (1–321) (100 nM) was mixed with increasing concentrations of H2O2; 6xHis (C); made in house; host or cells: E. coli BL21 (DE3)-RIL
T2 sequence (P18031 1-321): T1 sequence (P18031 1-321 limits assumed)
Method: To test whether there was overlap in the binding site for chelerythrine and scFv antibodies that stabilized PTP1B-OX, we performed an in vitro competition binding assay using purified components. […] We focused on scFv106 and scFv67. Purified PTP1B (50 nM) was reversibly oxidized with 250 µM H2O2 followed by a buffer exchange to remove excess H2O2. Increasing concentration of purified scFv antibody (0–10 µM) was incubated with oxidized proteins in binding buffer (20 mM HEPES pH 7.4, 300 mM NaCl, 0.05% BSA, 0.05% Tween-20) for 2 h at 4 °C. Anti-HA agarose (Roche, 50% slurry equilibrated in the binding buffer) was added and incubated for 1 h at 4 °C. Protein complexes bound to anti-HA beads were precipitated and washed three times; first with lysis buffer followed by two more washes with wash buffer (25 mM HEPES pH 7.4, 100 mM NaCl, 0.05% BSA, 0.05% Tween-20, and protease inhibitors). The protein complex was incubated with varying concentrations of chelerythrine (0–20 µM) for 2 h at 4 °C, following which the beads were washed as described above. The complexes were resolved by SDS-PAGE and analyzed by immunoblotting.

PKC = settings: called into question by refs 39, 40; cited from earlier work
reduced form of PTP1B = test system: reduced form of PTP1B; design: method as in PMID 21962515; settings: cited from earlier work
PTP1B-CASA-mut2 = biological target: T3, PTP1B-CASA-mut2 (Homo sapiens, UniProt P18031, C215A/K39E/K41R/L37F/S216A); assay: analytical size-exclusion chromatography; type: binding; settings: excess or limiting molar ratios
T3 construct: PTP1B (1–321) and TCPTP (1–317) cloned in pET21b vector were used as templates; made in house; host or cells: E. coli BL21 (DE3)-RIL
T3 sequence (P18031 1-321 L37F/K39E/K41R/C215A/S216A limits assumed): T1 sequence (P18031 1-321 limits assumed) with L37F, K39E, K41R, C215A, S216A
Method: Recombinant PTP1B-CASA, PTP1B-CASA-mut2, and scFv45 were purified as described. Proteins were exchanged into freshly prepared 50 mM ammonium bicarbonate pH 8 (Fig. 2a; Supplementary Fig. 1) using 0.5 mL Zeba spin desalting columns 7K MWCO (Thermo Fisher Scientific) as per manufacturers protocol. Designated protein constructs or buffer equivalents were mixed at 1.1 or 1.4 molar excess (excess reciprocated for both PTP1B and scFv45) and incubated on ice 20 min prior to injection (20 µL injection loop; 4–10 µg total protein), separation, and detection on a Dionex Ultimate 3000 HPLC connected to an XBridge Protein BEH SEC 200 Å, 3.5 µm, 7.8 mm × 300 mm column (Waters) flowing 200 mM ammonium acetate pH 7.0 isocratically at 0.86 mL min^−1 and 25 °C, monitoring absorbance at λ 280 nm (Fig. 2a; Supplementary Fig. 1). Injections were performed intermittently with BEH200Å SEC Protein Standard Mix (amount corrected for 20 µL injection loop; Waters Corp.) to monitor peak resolution and retention time consistency among runs.

## COc1ccc2c(c[n+](C)c3c4cc5c(cc4ccc23)OCO5)c1OC [chelerythrine]
[1]
  complex formation between PTP1B-OX and thioredoxin substrate trapping mutant: did not prevent complex formation
PTP1B-OX
  competition with scFv106 for binding to PTP1B-OX: competed
PKC
  inhibition of PKC: inhibitor of PKC

B1: scFv45: recombinant conformation-sensor single-chain variable fragment antibody recognizing oxidized PTP1B (antibody, V domains shown)
VH: TVTLDESGGGLQAPGGALSLVCKASGFTFSSYDMGWIRQAPGKGLEYVAGITDNGRYASYGSAVDGRATISRDNGQSSVRLQLNNLRAEDTGTYYCARDDGSGWTGNSIDAWGHGTEVIVSE
VL: ALTQPSSVSANPGGTVKITCSGSSSAYGYGWYQQKSPGSAPVTVIYNNNKRPSNIPSRFSGSKSGSTGTLTITGVQAEDEAVYFCGSEDSSTDAIFGAGTTLTVL
Reduced form of PTP1B
  binding to the reduced form of PTP1B: did not bind
PTP1B-CASA-mut2
  association with PTP1B-CASA-mut2: unable to associate
